Reference: ChEMBL document CHEMBL1201862, “PubChem BioAssay data set” (2004)
Activity calls are given as the source filed them.

Tests used:
fMet-Leu-Phe receptor = biological target: T1, fMet-Leu-Phe receptor (Homo sapiens, UniProt P21462); experiment: formyl peptide receptor binders – dose response (AID 519); format: functional
T1 sequence (P21462 whole entry): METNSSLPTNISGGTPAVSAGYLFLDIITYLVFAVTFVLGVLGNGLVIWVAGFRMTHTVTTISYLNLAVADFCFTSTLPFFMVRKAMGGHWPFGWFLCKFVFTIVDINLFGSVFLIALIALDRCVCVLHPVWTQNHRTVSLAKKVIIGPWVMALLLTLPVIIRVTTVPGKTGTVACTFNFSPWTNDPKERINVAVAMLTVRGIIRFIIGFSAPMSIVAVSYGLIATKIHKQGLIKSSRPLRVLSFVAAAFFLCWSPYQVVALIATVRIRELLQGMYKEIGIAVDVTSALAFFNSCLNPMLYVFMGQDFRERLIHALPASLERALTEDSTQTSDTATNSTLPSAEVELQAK

[1] = biological target: Induced myeloid leukemia cell differentiation protein Mcl-1 (Homo sapiens, UniProt Q07820); format: functional
Chain of Induced myeloid leukemia cell differentiation protein Mcl-1 (Q07820 whole entry): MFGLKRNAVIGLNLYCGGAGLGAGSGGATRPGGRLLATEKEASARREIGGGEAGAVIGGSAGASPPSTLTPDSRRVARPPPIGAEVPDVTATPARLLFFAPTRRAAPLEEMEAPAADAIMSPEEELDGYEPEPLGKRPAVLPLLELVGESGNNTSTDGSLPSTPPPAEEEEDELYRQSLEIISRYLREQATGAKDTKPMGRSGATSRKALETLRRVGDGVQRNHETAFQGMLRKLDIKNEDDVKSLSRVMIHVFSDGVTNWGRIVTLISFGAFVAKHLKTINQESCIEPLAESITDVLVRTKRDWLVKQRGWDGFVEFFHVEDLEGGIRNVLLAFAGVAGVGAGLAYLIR

[2] = test system: Streptococcus sp. 'group A'; experiment: Streptococcus pyogenes SK(-)GAS viability under kanamycin – luminescence, BacTiterGlo, confirmation, counter-screen for streptokinase expression inhibitor project, dose response (AID 1900); format: functional, organism-based
[3] = biological target: T2, Voltage-gated N-type calcium channel alpha-1B subunit/Amyloid beta A4 precursor protein-binding family A member 1 (Homo sapiens, UniProt Q00975+Q02410); format: protein assay
T2 sequence (Q00975 whole entry): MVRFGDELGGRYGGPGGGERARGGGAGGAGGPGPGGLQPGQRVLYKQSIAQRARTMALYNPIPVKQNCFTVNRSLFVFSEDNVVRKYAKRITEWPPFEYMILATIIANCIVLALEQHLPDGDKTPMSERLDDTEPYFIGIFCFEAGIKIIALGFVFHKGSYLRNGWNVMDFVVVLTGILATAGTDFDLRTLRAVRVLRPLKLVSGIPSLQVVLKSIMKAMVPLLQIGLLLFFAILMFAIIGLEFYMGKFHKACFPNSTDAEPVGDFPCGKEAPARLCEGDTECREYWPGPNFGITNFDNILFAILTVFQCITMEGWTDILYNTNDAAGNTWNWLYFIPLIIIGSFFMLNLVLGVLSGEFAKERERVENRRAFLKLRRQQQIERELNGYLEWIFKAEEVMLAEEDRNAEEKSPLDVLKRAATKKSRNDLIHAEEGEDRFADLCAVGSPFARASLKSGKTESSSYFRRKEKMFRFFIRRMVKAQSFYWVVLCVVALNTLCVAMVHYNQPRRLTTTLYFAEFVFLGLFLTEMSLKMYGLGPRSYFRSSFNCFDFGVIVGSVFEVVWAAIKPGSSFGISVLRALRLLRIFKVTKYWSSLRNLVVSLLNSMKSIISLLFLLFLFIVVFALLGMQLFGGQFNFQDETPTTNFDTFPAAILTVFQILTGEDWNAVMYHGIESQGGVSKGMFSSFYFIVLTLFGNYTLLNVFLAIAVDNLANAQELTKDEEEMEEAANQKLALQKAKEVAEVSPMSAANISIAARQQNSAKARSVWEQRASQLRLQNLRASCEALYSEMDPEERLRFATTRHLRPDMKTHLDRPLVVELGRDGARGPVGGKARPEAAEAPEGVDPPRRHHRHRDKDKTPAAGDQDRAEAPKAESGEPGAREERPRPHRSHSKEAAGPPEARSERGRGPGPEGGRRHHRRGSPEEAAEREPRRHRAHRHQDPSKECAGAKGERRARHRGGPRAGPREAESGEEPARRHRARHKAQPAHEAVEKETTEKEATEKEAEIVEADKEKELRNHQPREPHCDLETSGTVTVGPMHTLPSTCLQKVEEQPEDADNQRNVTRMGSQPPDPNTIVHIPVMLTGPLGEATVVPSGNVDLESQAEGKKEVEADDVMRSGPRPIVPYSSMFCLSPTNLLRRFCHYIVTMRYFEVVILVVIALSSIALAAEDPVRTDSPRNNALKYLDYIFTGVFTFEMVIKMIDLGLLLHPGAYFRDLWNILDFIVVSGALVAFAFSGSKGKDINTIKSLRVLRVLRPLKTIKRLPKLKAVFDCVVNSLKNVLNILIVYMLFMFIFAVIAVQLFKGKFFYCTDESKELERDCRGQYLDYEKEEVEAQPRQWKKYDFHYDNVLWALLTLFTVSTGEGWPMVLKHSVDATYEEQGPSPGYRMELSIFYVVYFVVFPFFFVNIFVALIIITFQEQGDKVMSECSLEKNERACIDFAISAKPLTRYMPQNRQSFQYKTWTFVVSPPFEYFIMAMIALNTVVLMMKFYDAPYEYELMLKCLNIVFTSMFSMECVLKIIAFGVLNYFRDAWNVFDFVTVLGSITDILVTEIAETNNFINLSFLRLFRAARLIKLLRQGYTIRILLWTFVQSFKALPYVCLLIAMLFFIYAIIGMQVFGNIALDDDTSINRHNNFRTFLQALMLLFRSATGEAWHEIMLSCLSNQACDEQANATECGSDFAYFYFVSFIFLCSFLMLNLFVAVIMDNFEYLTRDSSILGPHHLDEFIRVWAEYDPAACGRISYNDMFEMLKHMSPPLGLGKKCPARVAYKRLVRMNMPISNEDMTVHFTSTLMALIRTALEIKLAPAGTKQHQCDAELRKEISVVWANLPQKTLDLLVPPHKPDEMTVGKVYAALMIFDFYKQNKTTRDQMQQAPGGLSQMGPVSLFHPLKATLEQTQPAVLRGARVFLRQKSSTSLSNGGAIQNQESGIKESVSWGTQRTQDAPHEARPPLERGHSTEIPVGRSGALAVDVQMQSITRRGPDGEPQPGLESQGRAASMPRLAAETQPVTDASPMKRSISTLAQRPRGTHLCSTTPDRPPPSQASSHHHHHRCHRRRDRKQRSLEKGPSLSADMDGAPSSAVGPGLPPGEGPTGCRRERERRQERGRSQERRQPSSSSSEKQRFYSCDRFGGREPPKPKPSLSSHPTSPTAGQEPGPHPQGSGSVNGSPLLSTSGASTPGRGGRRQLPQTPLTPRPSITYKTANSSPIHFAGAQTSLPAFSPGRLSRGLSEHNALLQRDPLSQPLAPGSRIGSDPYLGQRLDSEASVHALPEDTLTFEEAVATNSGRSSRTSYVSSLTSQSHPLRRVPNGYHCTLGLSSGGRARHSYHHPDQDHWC
T2 sequence (Q02410 whole entry): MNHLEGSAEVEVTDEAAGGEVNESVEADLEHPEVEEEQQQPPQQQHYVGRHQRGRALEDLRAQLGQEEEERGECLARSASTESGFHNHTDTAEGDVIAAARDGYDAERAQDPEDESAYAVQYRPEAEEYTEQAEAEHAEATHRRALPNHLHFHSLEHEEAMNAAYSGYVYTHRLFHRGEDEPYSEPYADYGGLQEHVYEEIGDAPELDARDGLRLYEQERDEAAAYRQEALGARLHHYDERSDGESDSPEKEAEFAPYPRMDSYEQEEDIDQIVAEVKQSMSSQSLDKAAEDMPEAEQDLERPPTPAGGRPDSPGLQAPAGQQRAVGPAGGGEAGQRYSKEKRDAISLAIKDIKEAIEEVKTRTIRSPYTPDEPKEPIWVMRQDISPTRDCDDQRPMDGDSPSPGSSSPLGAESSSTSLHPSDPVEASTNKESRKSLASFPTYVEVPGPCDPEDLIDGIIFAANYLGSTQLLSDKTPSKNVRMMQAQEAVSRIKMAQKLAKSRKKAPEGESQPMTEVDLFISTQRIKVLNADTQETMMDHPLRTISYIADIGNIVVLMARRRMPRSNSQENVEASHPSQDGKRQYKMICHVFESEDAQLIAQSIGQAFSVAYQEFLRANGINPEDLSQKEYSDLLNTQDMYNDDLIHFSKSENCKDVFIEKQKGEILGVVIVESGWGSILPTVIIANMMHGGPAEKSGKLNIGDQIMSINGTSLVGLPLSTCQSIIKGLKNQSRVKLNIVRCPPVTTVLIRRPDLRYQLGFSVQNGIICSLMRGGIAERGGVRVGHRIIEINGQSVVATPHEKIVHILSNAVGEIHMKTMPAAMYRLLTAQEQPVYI

cells [4] = format: functional, cell-based
[5] = biological target: T2, Voltage-gated N-type calcium channel alpha-1B subunit/Amyloid beta A4 precursor protein-binding family A member 1; format: protein assay; remark: listed apart in the source
Streptococcus = experiment: GAS UMAA2166 growth inhibition – luminescence, BacTiterGlo, counter-screen for streptokinase expression inhibitor project, dose response (AID 1915); format: functional, organism-based;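 also: potency for reduction of bacterial viability or growth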
[6] = Luminescence Cell-Based Dose Response HTS to Identify Inhibitors of 5'UTR Stem-Loop Driven Prion Protein mRNA Translation in H4 Neuroglioblastoma Cells. [Related pubchem assays: 1827 (Project Summary), 1813 (Primary HTS)]; format: functional
[7] = luciferase reporter signal suppression in cells – H4 neuroglioma cells, luminescence, dose response (AID 1990); format: functional, cell-based
cells [8] = format: functional, cell-based; remark: listed apart in the source
INS1 = experiment: INS-1E survival protection against cytokine death – cell-based, luminescence, retest, dose response (AID 449756); format: functional; details: Rattus norvegicus;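 also: cell death triggered by IL-1 beta plus TNF-alpha plus IFN-gamma mixture; protective hits raise ATP signal compared with cytokine alone wells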
[9] = alpha-synuclein stem-loop luciferase translation blockers – H4 neuroglioma cells, luminescence, confirmation (AID 1988); format: functional, cell-based
Cytochrome P450 2C9 = Cytochrome P450 2C9 (Homo sapiens, UniProt P11712)
Chain of Cytochrome P450 2C9 (P11712 whole entry): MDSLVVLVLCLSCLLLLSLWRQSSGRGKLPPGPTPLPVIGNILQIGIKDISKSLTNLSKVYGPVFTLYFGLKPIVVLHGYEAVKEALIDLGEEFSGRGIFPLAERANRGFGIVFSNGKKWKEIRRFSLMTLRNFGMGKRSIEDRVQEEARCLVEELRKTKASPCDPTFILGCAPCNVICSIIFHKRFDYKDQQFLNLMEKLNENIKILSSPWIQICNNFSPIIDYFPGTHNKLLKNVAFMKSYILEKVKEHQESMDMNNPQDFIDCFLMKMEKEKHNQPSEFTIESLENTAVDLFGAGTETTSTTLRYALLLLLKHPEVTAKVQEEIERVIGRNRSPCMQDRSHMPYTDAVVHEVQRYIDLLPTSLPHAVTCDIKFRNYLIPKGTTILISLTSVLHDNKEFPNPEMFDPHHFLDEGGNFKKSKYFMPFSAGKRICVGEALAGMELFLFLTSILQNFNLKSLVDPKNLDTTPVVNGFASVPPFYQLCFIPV

[10] = biological target: T3, Short transient receptor potential channel 4 (Mus musculus, UniProt Q9QUQ5); experiment: block of DAMGO-driven TRPC4 calcium entry – cell-based, HEK293 TRPC4/mu-opioid, Fluo-4 calcium, dose response (AID 434942); format: functional;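 also: potency of inhibitors blocking the TRPC4 calcium response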
T3 sequence (Q9QUQ5 whole entry): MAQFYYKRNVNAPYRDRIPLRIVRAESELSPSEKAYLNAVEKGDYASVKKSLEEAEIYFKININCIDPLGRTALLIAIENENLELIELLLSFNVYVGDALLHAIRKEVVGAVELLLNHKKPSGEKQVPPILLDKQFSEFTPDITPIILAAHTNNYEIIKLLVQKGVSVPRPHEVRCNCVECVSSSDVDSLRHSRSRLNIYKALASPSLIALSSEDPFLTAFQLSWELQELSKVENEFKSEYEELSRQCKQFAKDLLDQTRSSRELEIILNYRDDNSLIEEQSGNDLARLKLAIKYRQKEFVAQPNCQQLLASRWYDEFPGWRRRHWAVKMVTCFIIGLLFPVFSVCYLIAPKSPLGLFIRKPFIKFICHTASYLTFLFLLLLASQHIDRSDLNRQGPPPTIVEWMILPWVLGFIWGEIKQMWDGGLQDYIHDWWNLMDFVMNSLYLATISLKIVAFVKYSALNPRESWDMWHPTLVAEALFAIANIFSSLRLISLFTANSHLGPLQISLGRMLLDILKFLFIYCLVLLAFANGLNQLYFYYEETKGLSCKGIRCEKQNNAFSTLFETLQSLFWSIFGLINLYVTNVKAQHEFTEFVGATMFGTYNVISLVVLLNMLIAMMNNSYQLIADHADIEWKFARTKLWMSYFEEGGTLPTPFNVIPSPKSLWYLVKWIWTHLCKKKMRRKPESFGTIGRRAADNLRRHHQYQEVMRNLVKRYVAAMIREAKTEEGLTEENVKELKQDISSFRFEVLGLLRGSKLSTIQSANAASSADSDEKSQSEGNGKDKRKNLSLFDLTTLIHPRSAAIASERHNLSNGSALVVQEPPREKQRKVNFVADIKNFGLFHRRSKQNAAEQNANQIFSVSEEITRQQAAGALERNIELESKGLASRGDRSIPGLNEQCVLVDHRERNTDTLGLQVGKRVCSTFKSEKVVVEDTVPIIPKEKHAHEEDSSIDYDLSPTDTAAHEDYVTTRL

[11] = P. falciparum Dd2 growth inhibitors, dose response, SYBR Green, cherry-picked samples (AID 1159567); format: functional, cell-based
Cytochrome P450 2C19 = Cytochrome P450 2C19 (Homo sapiens, UniProt P33261); experiment: Cytochrome panel assay with activity outcomes. Panel member name: p450-cyp2c19 Compounds with AC50 equal or less than 10 uM are considered active; format: functional; details: read-out: AC50
Chain of Cytochrome P450 2C19 (P33261 whole entry): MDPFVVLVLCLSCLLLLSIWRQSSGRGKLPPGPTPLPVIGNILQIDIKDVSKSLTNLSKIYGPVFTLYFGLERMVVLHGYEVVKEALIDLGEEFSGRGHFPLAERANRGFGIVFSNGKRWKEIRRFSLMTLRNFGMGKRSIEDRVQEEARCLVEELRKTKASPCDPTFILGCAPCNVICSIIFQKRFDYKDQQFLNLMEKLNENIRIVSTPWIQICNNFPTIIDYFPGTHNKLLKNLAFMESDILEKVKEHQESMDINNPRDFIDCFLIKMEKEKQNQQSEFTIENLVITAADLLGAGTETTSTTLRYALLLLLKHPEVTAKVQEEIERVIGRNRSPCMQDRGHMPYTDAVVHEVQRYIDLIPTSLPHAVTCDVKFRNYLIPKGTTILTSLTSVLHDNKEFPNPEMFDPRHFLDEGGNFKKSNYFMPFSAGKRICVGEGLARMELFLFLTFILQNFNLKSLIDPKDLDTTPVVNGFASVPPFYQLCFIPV

Large T antigen = Large T antigen (Simian virus 40, UniProt P03070); format: functional, Betapolyomavirus macacae;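 also: Confirmatory-stage PubChem screen for compounds that inhibit SV40 T antigen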
Cytochrome P450 2D6 = Cytochrome P450 2D6 (Homo sapiens, UniProt P10635);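 also: CYP2D6 member of a cytochrome P450 panel assay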
Chain of Cytochrome P450 2D6 (P10635 whole entry): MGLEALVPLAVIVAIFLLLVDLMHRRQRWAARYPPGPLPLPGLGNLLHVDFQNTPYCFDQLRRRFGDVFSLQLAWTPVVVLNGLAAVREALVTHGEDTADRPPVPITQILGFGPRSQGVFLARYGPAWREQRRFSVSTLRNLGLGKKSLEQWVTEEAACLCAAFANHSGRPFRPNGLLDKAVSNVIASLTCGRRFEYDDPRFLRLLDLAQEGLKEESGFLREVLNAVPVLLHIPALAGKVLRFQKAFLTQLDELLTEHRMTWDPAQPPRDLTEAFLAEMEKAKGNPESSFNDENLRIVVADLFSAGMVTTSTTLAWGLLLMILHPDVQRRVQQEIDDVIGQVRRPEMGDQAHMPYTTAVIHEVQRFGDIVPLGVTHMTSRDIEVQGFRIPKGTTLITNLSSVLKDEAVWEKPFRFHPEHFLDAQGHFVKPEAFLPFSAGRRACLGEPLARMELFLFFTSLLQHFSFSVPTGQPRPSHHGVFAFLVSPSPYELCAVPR

[12] = biological target: T4, Heat shock factor protein 1 (Mus musculus, UniProt P38532); experiment: decrease of HSF1-responsive luciferase luminescence – cell-based, NIH3T3, dose retest, confirmation (AID 2382); format: functional;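 also: NIH3T3 fibroblasts with HSF1-driven luciferase reporter stressed by proteasome inhibitor MG132; luminescence from HSF1-driven luciferase expression after 8 hours of MG132 stress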
T4 sequence (P38532 whole entry): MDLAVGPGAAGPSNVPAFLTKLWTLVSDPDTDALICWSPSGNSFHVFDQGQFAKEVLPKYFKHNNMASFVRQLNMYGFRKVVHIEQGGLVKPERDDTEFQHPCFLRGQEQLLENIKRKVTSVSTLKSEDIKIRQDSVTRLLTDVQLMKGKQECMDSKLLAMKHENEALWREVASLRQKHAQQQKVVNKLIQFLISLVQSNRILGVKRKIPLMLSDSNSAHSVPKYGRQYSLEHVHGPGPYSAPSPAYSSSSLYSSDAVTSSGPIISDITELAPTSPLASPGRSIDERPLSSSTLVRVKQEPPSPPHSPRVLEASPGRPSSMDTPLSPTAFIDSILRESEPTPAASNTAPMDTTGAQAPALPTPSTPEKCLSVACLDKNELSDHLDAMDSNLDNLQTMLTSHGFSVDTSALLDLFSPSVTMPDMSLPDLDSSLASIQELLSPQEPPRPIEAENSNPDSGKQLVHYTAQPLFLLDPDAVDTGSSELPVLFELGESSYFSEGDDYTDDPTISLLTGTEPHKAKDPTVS

P388 = experiment: cells; format: functional; details: Mus musculus
P388/ADR = experiment: cells; format: functional; details: Mus musculus
SN12K1 = experiment: cells; format: functional; details: Homo sapiens

COc1ccc(-c2cc(C(F)(F)F)nc(N3CCN(c4ccccc4)CC3)n2)cc1OC
Ki (fMet-Leu-Phe receptor): > 66.7 µM (inactive)

Cc1cc(C(=O)N/N=C/c2cc(N=Nc3ccccc3)ccc2O)[nH]n1
IC50 [1]: 2.22 µM (active) | EC50 [2]: 2.04 µM (active) | IC50 [3]: 10.9 µM (active) | EC50 (cells [4]): 11.5 µM (active) | IC50 [5]: > 50 µM (inactive) | EC50 (Streptococcus): 1.92 µM (active) | EC50 [6]: 10.7 µM (active) | EC50 [7]: 13 µM (active) | EC50 (cells [8]): 27.9 µM (active) | AC50 (INS1): 1.22 µM (active) | EC50 [9]: 9.08 µM (active)

CN(C)c1ncc2ncc(=O)n(CCC#N)c2n1
AC50 (Cytochrome P450 2C9): inconclusive

CC12CN3CC(C)(CN(C1)C3c1ccc(Cl)cc1Cl)C2O (stereo not drawn)
EC50 [10]: 4.22 µM (active)

COc1ccc(C#Cc2cccc(-c3nc(C(=O)N[C@@H]4CCN(Cc5ccccc5)C4)cc4c3[C@H](CCO)N([S+]([O-])C(C)(C)C)C4)c2)cc1OC (stereo partly drawn)
AC50 [11]: 4.45 µM (active)

CC1CCCC(NC(=O)CCn2c(=O)oc3ccccc32)C1C (stereo not drawn)
AC50 (Cytochrome P450 2C9): inconclusive | AC50 (Cytochrome P450 2C19): 4.47 µM (inconclusive)

CC(C)COCC1CC2(CC(C)(c3csc(N)n3)OC2=O)C(=O)O1 (stereo not drawn)
AC50 (Cytochrome P450 2C9): inconclusive

Cc1cc(O)c(C=O)c2c1C(=O)Oc1c(CO)c(O)c3c(c1O2)C(O)OC3=O (stereo not drawn) [SLAZINIC ACID]
IC50 [3]: 14.8 µM (active) | IC50 (Large T antigen): 17.5 µM (active) | IC50 [5]: 12.5 µM (active)

COc1ccc(OC)c(/C=N/NC(=O)c2csc3ccccc23)c1
AC50 (Cytochrome P450 2C9): inconclusive | AC50 (Cytochrome P450 2D6): 20 µM (inconclusive)

CCOC(=O)Cc1cc(O)n2nc(C)c(-c3ccc(OC)cc3)c2n1
Ki (fMet-Leu-Phe receptor): 18.3 µM (inactive)

C[C@@H]1CN([C@@H](C)CO)S(=O)(=O)c2ccc(C#Cc3ccncc3)cc2O[C@H]1CN(C)S(=O)(=O)c1ccc(F)cc1
AC50 [11]: 2.95 µM (active)

CCCS(=O)(=O)N1CCCC(C(=O)N2CCC(Cc3ccccc3)CC2)C1 (stereo not drawn)
EC50 [12]: > 195 µM (not active) | Ki (fMet-Leu-Phe receptor): > 66.7 µM (inactive)

Cc1cccc(-n2cnc3c(c2=O)c2nc4ccccc4nc2n3Cc2ccco2)c1
IC50 [3]: 2.16 µM (active) | IC50 [5]: 0.871 µM (active)

CN(C)c1nc(N(C)C)nc(N(C)C)n1 [ALTRETAMINE]
Ki (fMet-Leu-Phe receptor): > 66.7 µM (inactive) | GI50 (P388): > 106 µM (inactive) | GI50 (P388/ADR): > 136 µM (inactive) | GI50 (SN12K1): > 150 µM (inactive)
